Assay [1] has as its system T98. Briefly: Induction of apoptosis in human T98 cells assessed as alive cells at 100 uM after 24 hrs by Annexin-V-FITC/propidium iodide staining based flow cytometry analysis (reference value: 95 +/- 5.6 %). It is filed as functional.
Assay [2] concerns T98. Briefly: Effect on cytochrome-c mRNA expression levels in human T98 cells at 50 to 100 uM by real-time PCR assay. The class given is functional, cell-based.
Assay [3] is described as follows: Antiproliferative activity against human T98 cells assessed as reduction in survival rate at 100 uM after 24 hrs by MTT assay relative to control. It is filed as functional.
Assay [4] is described as follows: Antiproliferative activity against human T98 cells assessed as reduction in survival rate at 50 uM after 24 hrs by MTT assay relative to control. It is filed as functional.
Assay [5] has as its system T98. Briefly: Induction of apoptosis in human T98 cells assessed as alive cells at 50 uM after 24 hrs by Annexin-V-FITC/propidium iodide staining based flow cytometry analysis (reference value: 95 +/- 5.6 %). The class given is functional.
For assay [6], the system named is T98. Briefly: Induction of apoptosis in human T98 cells assessed as early apoptotic cells at 100 uM after 24 hrs by Annexin-V-FITC/propidium iodide staining based flow cytometry analysis (reference value: 1.1 +/- 0.3 %). It is filed as functional.
Assay [7] concerns T98. Briefly: Antiproliferative activity against human T98 cells assessed as reduction in survival rate at 1 to 100 uM after 24 hrs by MTT assay. It is filed as functional, cell-based.
Assay [8] deals with T98. Briefly: Effect on caspase 3 mRNA expression levels in human T98 cells at 50 to 100 uM by real-time PCR assay. The class given is functional, cell-based.
Assay [9] in a line: Induction of apoptosis in human T98 cells assessed as total death rate at 50 uM after 24 hrs by Annexin-V-FITC/propidium iodide staining based flow cytometry analysis (reference value: 3.8 %). It is filed as functional.
For assay [10], the system named is T98. Briefly: Induction of apoptosis in human T98 cells assessed as late apoptotic cells at 50 uM after 24 hrs by Annexin-V-FITC/propidium iodide staining based flow cytometry analysis (reference value: 2.7 +/- 1.4 %). The class given is functional.
In assay [11] the test system is T98. As to the kind of experiment: Effect on caspase 8 mRNA expression levels in human T98 cells at 50 to 100 uM by real-time PCR assay. It is filed as functional, cell-based.
Assay [12] can be described thus: Induction of apoptosis in human T98 cells assessed as total death rate at 100 uM after 24 hrs by Annexin-V-FITC/propidium iodide staining based flow cytometry analysis (reference value: 3.8 %). It is filed as functional.
Assay [13] has as its system T98. As to the kind of experiment: Induction of apoptosis in human T98 cells assessed as early apoptotic cells at 50 uM after 24 hrs by Annexin-V-FITC/propidium iodide staining based flow cytometry analysis (reference value: 1.1 +/- 0.3 %). It is filed as functional.
Assay [14] in a line: Reduction in Cox-2 mRNA expression levels in human T98 cells by real-time PCR assay. It is filed as functional, cell-based.
In assay [15] the test system is T98. As to the kind of experiment: Induction of apoptosis in human T98 cells assessed as late apoptotic cells at 100 uM after 24 hrs by Annexin-V-FITC/propidium iodide staining based flow cytometry analysis (reference value: 2.7 +/- 1.4 %). It is filed as functional.
Assay [16] relates to T98. As to the kind of experiment: Effect on caspase 9 mRNA expression levels in human T98 cells at 50 to 100 uM by real-time PCR assay. It is filed as functional, cell-based.

Calls of active or inactive are those of the source. No cut-off for these calls is given here.

For `COc1ccc2c(c1)c(Cc1nnc3n1N=C(c1ccc(C)cc1)CS3)c(C)n2C(=O)c1ccc(Cl)cc1`, the Activity was determined as 31% in the assay with T98 [1]; 40% in [3]; 25% in assay [4]; 39% in the assay on T98 [5]; 12% with T98 [6]; 49% in [9]. Besides, the Activity with T98 [10] was 38%; in [12], 59%; with T98 [13] it was 11%; in [14], “Dose-dependent effect”; in the assay with T98 [15], 47%. The outcome in the assay with T98 [2], with T98 [8], with T98 [11] and in the assay on T98 [16] was inactive. Moreover, the result in the assay on T98 [7] was Active.

The values are drawn from ChEMBL document CHEMBL3779878, “Indomethacin based new triazolothiadiazine derivatives: Synthesis, evaluation of their anticancer effects on T98 human glioma cell line related to COX-2 inhibition and docking studies” (2016).
